Reference: US5338858A, “Triazolyl, tetrazolyl and azido-substituted fatty acid analog enzyme substrates” (Washington University, priority 1992, dated 1994)
Values after ≈ are worked out from the molar mass of the structure shown. Read-outs that look alike come from different tables or passages of the source.

Columns and labels:
[1] = molecular target: T1, yeast N-myristoyltransferase (Saccharomyces cerevisiae, UniProt P14743); experiment: in vitro yeast N-myristoyltransferase (NMT) assay, substrate activity of fatty acyl CoA derivatives; assay type: biochemical; settings: peptide GSAASARR-NH2, 30° C., 10 minutes; normalized to myristoyl peptide of parallel assay
T1 sequence (P14743 1-455): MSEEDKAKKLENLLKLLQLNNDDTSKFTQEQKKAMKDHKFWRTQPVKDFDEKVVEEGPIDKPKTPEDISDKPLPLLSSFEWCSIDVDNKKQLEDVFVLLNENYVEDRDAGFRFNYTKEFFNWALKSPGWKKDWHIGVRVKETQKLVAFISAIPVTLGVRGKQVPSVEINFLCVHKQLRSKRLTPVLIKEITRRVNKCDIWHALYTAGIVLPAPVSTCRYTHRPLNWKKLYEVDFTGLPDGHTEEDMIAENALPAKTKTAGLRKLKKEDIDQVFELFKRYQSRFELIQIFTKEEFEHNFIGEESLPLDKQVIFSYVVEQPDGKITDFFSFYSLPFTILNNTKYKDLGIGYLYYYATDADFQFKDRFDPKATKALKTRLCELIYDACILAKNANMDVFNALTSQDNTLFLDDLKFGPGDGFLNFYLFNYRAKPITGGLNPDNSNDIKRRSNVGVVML
Experimental: A. Representative compounds prepared in the foregoing illustrative specific examples were analyzed in a conventional in vitro yeast N-myristoyltransferase (NMT) assay as published by Heuckeroth et al., Proc. Nat'l Acad. Sci. USA 85, 8795-8799 (1988). In this assay, the test compounds were first converted to their respective fatty acyl CoA derivatives and then tested as substrates for the yeast NMT.
The assay conditions [essentially the same as those reported by Towler and Glaser, Proc. Natl. Acad. Sci. USA 83, 2812-2816 (1986)] were as follows:
1. Ligase reaction: 3.3 μmoles fatty acid, 5 mM ATP and 1 mM CoA were incubated with 15-150 milliunits of CoA ligase (1 unit/ml in 50 mM HEPES, pH 7.3) in a buffer composed of 10 mM TRIS-HCl, pH 7.4, 1 mM dithiothreitol, 5 mM MgCl2 and 0.1 mM EGTA, in a total volume of 50 μl for 25 minutes at 30° C.
2. NMT assay: 50 μl of the CoA ligase mixture was added to a 50 μl solution of 90 μM peptide (GSAASARR-NH2) in a buffer composed of 10 mM TRIS-HCl, pH 7.4, 1 mM dithiothreitol, 0.01 mM EGTA and aprotinin (10 μg/ml). 0.4 Unit of yeast N-myristoyltransferase was then added and the reaction mixture was incubated at 30° C. for 10 minutes. The peptide was radiolabeled with tritiated alanine in position 3. The reaction was quenched with 120 μl of TCA-MeOH and 75 μl was injected on a reverse phase C18 HPLC column and eluted with a linear gradient of 0-100% acetonitrile over 100 minutes (both water and acetonitrile containing 0.1% trifluoroacetic acid). Radioactivity was assessed with an on line radiomatic detector corrected for quenching.
The amount of radioactivity was determined for each azido-substituted fatty acyl peptide product and then was normalized to the amount of myristoyl peptide produced in an assay run in parallel.

HIV-1 [2] = experiment: HIV inhibition assay of acutely infected CEM cells (MTT tetrazolium colorimetric, reduction of CPE); assay type: cell-based; settings: for IC50 / inhibition at 1 µg/mL / inhibition at 10 µg/mL: Human immunodeficiency virus 1, CCRF-CEM, 168 h; for IC50: read-out: ID50 (inhibitory dose that inhibits 50% of the cytopathic effect); for inhibition at 1 µg/mL / inhibition at 10 µg/mL: read-out: Percent Reduction of CPE
Experimental: B. Representative compounds prepared in the foregoing illustrative specific examples were also tested in vitro for the assessment of anti-viral (HIV) activity as follows:
The HIV inhibition assay method of acutely infected cells is an automated tetrazolium based colorimetric assay adatped from that reported by Pauwles et al., J. Virol. Methods, 20, 309-321 (1988). Assays were performed in 96-well tissue culture plates. CEM cells were grown in RPMI-1640 medium (Gibco) supplemented with 10% fetal calf serum and were then treated with polybrene (2 μg/ml). An 80 μl volume of medium containing 1×10^4 cells was dispensed into each well of the tissue culture plate. To each well was added a 100 μl volume of test compound dissolved in tissue culture medium (or medium without test compound as a control) to achieve the desired final concentration and the cells were incubated at 37° C. for 1 hour. A frozen culture of HIV-1 was diluted in culture medium to a concentration of 5×10^4 TCID50 per ml (TCID50 =the dose of virus that infects 50% of cells in tissue culture), and a 20 μl volume of the virus sample (containing 1000 TCID50 of virus) was added to wells containing test compound and to wells containing only medium (infected control cells). […] Several wells received culture medium without virus (uninfected control cells). Likewise, the intrinsic toxicity of the test compound was determined by adding medium without virus to several wells containing test compound. In summary, the tissue culture plates contained the following tests (in triplicate):
In tests 2 and 4 the final concentrations of test compounds were 1, 10, 100 and 500 μg/ml. Azidothymidine (AZT) was tested as a positive drug control, and dodecanoic acid was tested as a negative fatty acid control. […] Under these conditions, DMSO had no significant effect on results as determined in controls.
Following the addition of virus, cells were incubated at 37° C. in a humidified, 5% CO2 atmosphere for 7 days. Additional aliquots of test compounds were added on days 2 and 5. On day 7 post-infection, the cells in each well were resuspended and a 100 μl sample of each cell suspension was removed for assay. A 20 μl volume of a 5 mg/ml solution of 3-(4,5-dimethylthiazol-2-yl)-2,5-diphenyltetrazolium bromide (MTT) was added to each 100 μl cell suspension, and the cells were incubated for 4 hours at 37° C. in a 5% CO2 environment. […] To each sample was added 100 μl of 10% sodium dodecylsulfate in 0.01 N HCl to lyse the cells and samples were incubated overnight. The absorbance of each sample was determined.at 590 nm using a Molecular Devices microplate reader. The % reduction of the virus induced cytopathic effect (CPE) by the test compounds was determined using the formula shown at the bottom of Table 2, hereinafter.
The results of the antiviral testing are set forth in Table 2, as percent reduction in cytopathic effect (CPE). The inhibitory dose that inhibits 50% of the cytopathic effect is shown as ID50 (μg/ml).
^a The percent reduction of viral CPE was calculated by the formula: […]

HIV-1 [3] = experiment: as above; assay type: cell-based; settings: Human immunodeficiency virus 1, CCRF-CEM, 168 h, read-out: Percent Reduction of CPE
[4] = concentration 1 (μg/ml), CEM cells, HIV-1, 7 days
[5] = concentration 10 (μg/ml), CEM cells, HIV-1, 7 days

Compound	Activity (% of Myristate) [1]	ID50 (inhibitory dose that inhibits 50% of the cytopathic effect) (HIV-1 [2]; CEM cells, HIV-1, 7 days)	IC50 (HIV-1 [2]; CEM cells, HIV-1, 7 days) [µg/mL]	inhibition at 1 µg/mL (HIV-1 [2]; [4]) [%]	inhibition at 10 µg/mL (HIV-1 [2]; [5]) [%]	also measured
12-(Tetrazolyl)dodecanoic acid [Compound 46]	46 % of Myristate	5.9 µg/mL	–	–	–	Percent Reduction of CPE (HIV-1 [2]; [4]): 12%; Percent Reduction of CPE (HIV-1 [2]; [5]): 65%
COCCCCCCCCCCCC(=O)O [13-Oxamyristate, reference compound]	–	–	0.3 (≈ 1.3 µM)	66.4	43.5	–
Cc1cn([C@H]2C[C@H](N=[N+]=[N-])[C@@H](CO)O2)c(=O)[nH]c1=O [AZT, Azidothymidine]	–	–	< 0.001	–	–	inhibition at 0.5 µg/mL (HIV-1 [3]): 87.8%; inhibition at 0.001 µg/mL (HIV-1 [3]; 0.001 μg/ml, CEM cells, HIV-1, 7 days): 58.2%; inhibition at 0.01 µg/mL (HIV-1 [3]; 0.01 μg/ml, CEM cells, HIV-1, 7 days): 84.8%; inhibition at 0.1 µg/mL (HIV-1 [3]; 0.1 μg/ml, CEM cells, HIV-1, 7 days): 101%
[N-]=[N+]=NCCCCCCCCCCCC(=O)O [Compound 1, 12-Azidododecanoic acid]	142 % of Myristate	–	0.3 (≈ 1.24 µM)	81.7	38.2	–
[N-]=[N+]=NCCCCCCCCCCC(=O)O [Compound 2, 11-Azidoundecanoic acid]	100 % of Myristate	–	–	16.3	34.6	–
[N-]=[N+]=NCCCCCCCCC(=O)O [Compound 3, 9-Azidononanoic acid]	55 % of Myristate	–	–	–	–	–
[N-]=[N+]=NCCCCCCSCCCCC(=O)O [Compound 13, 5-(1-Azido-hexane-6-thia)pentanoic acid]	103 % of Myristate	Inactive	–	0	14	–
[N-]=[N+]=NCCCCCCCCCSCC(=O)O [Compound 19, 2-(1-Azido-nonane-9-thia)acetic acid]	17 % of Myristate	–	9.2 (≈ 35.5 µM)	1	54	–
[N-]=[N+]=NCCCCCCCCSCCC(=O)O [Compound 23, 4-(1-Azido-octane-6-thia)propionic acid]	373 % of Myristate	Inactive	–	–	–	inhibition at 1 µg/mL (HIV-1 [2]): 0%; inhibition at 10 µg/mL (HIV-1 [2]): 0%
[N-]=[N+]=NCCOCCCCCCCCC(=O)O [Compound 40, 9-(1-Azido-ethane-2-oxa)nonanoic acid]	280 % of Myristate	–	–	–	–	–
[N-]=[N+]=NCCCOCCCCCCCC(=O)O [Compound 41, 8-(1-Azido-propane-3-oxa)octanoic acid]	421 % of Myristate	–	5 (≈ 20.6 µM)	14	66	–
[N-]=[N+]=NCCCCCCOCCCCC(=O)O [Compound 42, 5-(1-Azido-hexane-6-oxa)pentanoic acid]	622 % of Myristate	Inactive	–	4	20	–
[N-]=[N+]=NCCCCCCCCCOCC(=O)O [Compound 43, 2-(1-Azido-nonane-9-oxa)acetic acid]	11 % of Myristate	Inactive	–	–	–	–
O=C(O)CCCCCCCCCCCn1cncn1 [Compound 48]	23 % of Myristate	–	4.2 (≈ 15.7 µM)	24	66	–
O=C(O)CCCCCCCCCCCn1nccn1 [Compound 50, 12-(N-2-[1,2,3]-Triazolyl)dodecanoic acid]	99 % of Myristate	–	–	19.5	30.8	–
CCCCCCCCCC(=O)O [Decanoic acid, reference compound]	–	–	–	–	–	inhibition at 1 µg/mL (HIV-1 [2]): 7.7%; inhibition at 10 µg/mL (HIV-1 [2]): 11.3%
